Measured values taken from patent US9005902B2, “Tuberculosis diagnostic test” (priority 1998, dated 2015).

Columns and labels:
[1] = system: ESAT-6 peptide-specific IFN-γ-secreting T cells from peripheral blood; format: cell-based, human; conditions: for % of TB patients responding to individual peptide: peptide 10 μg/ml, 3×10^5 PBMC/well, positive = at least 5 IFN-γ SFCs more than and at least twice negative control
[2] = system: HLA DR7; assay: Peptide binding to HLA DR7
[3] = system: HLA DR1; assay: Peptide binding to HLA DR1

Sequence | % of TB patients responding to individual peptide [1] | further results
QKWDATATELNNALQ (listed as Mycobacterium tuberculosis) [ES12, 15-mer peptide from ESAT-6 of M. tuberculosis] | 25% | 
NLARTISEAGQAMAS [ES15] | 34% | 
NNALQNLARTISEAG [ES14] | 28% | Detection of ESAT-6-specific CD8 T cells ([1]; peptide contains CD8 epitopes): detected
SAIQGNVTSIHSLLD (listed as Mycobacterium tuberculosis) [ES4, 15-mer peptide from ESAT-6 of M. tuberculosis] | 23% | 
YQGVQQKWDATATEL [ES11] | 34% | 
WNFAGIEAAASAIQG [ES2] | 40% | 
EGKQSLTKLAAAWGG (listed as Mycobacterium tuberculosis) [ES7, 15-mer peptide from ESAT-6 of M. tuberculosis] | 15% | 
MTEQQWNFAGIEAAA (listed as Mycobacterium tuberculosis) [ES1, 15-mer peptide from ESAT-6 of M. tuberculosis] | 57% | Binding to HLA DR7 [2]: binds; Binding to HLA DR1 [3]: binds; % of healthy contacts tested recognising the peptide ([1]; healthy contacts exposed to open pulmonary tuberculosis): 68%; Number of contacts testing positive ([1]; out of 22 contacts with prolonged exposure to smear positive index case, Heaf test grade 3 or 4): 15
